Reference: ChEMBL document CHEMBL2074355, “Biochemical mechanism of modulation of human P-glycoprotein (ABCB1) by curcumin I, II, and III purified from Turmeric powder” (Biochem Pharmacol, 2004)

Tests used:
Type in all cases: functional, cell-based
[1] = target: T1, ATP-dependent translocase ABCB1 (Homo sapiens, UniProt P08183); assay: TP_TRANSPORTER: increase in Rhodamine 123 intracellular accumulation in human KB-V1 cells
[2] = target: T1, ATP-dependent translocase ABCB1; assay: TP_TRANSPORTER: increase in bodipy-FL-vinblastine intracellular accumulation in human KB-V1 cells
[3] = target: T1, ATP-dependent translocase ABCB1; assay: TP_TRANSPORTER: increase in Calcein-AM intracellular accumulation in human KB-V1 cells

Measured: Activity

T1 sequence (P08183 whole entry): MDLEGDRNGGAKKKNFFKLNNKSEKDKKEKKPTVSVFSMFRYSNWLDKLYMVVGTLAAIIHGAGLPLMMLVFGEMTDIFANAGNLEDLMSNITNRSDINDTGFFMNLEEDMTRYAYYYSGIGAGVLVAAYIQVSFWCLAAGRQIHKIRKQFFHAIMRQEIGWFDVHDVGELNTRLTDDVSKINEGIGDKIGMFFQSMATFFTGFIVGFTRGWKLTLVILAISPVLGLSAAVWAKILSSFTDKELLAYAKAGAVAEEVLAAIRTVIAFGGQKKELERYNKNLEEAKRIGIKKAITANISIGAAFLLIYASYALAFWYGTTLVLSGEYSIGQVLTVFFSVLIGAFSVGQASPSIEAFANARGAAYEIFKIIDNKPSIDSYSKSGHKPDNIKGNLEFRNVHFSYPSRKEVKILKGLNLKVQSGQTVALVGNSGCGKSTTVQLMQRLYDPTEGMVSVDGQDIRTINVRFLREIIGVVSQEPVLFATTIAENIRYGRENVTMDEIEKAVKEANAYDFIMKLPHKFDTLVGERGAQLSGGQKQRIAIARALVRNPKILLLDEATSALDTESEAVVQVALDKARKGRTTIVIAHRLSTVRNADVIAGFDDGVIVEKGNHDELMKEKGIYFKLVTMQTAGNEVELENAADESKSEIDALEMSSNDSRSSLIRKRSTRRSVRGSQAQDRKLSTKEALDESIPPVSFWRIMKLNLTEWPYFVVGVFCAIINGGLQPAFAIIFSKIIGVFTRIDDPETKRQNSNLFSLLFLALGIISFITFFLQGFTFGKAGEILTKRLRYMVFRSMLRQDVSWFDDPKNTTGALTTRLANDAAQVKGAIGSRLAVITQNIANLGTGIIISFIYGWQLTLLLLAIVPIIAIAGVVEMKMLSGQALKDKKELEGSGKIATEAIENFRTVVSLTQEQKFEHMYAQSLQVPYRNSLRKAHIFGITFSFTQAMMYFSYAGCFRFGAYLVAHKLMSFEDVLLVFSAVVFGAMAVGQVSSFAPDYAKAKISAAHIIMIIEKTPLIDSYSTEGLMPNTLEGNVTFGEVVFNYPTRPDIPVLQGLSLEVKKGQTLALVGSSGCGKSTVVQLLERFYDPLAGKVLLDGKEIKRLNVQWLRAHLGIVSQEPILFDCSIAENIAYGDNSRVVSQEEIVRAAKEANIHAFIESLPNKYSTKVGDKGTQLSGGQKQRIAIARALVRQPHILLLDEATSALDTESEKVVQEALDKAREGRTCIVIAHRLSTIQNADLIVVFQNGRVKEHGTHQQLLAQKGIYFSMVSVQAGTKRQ

COc1cc(/C=C/C(=O)CC(=O)/C=C/c2ccc(O)c(OC)c2)ccc1O [CURCUMIN]
inhibitor [+]: [1] | [2] | [3]
